The source of these data is patent US20100280010A1, “CHEMICAL COMPOUNDS” (priority 2006, published 2010).

The subject of the test is HIV-1 (Ba-L or IIIB) infection of HOS cell line (expressing hCXCR4/hCCR5/hCD4/pHIV-LTR-luciferase). Description: HOS HIV-1 Infectivity Assay. Particulars: Human immunodeficiency virus 1, HOS, virus strain not given, read-out: Activity Level. The format is cell-based. As to the method:
Compounds were profiled against two HIV-1 viruses, the M-tropic (CCR5 utilizing) Ba-L strain and the T-tropic (CXCR4 utilizing) IIIB strain. Ba-L was propagated in either peripheral blood lymphocytes or SupT1/CCR5+/CXCR4+ cells. IIIB was propagated in peripheral blood lymphocytes. Compounds were tested for their ability to block infection of the HOS cell line (expressing hCXCR4/hCCR5/hCD4/pHIV-LTR-luciferase) by either HIV-1 Ba-L or HIV-1 IIIB. Compound cytotoxicity was also examined in the absence of virus addition.
HOS cells (expressing hCXCR4/hCCR5/hCD4/pHIV-LTR-luciferase) were harvested and diluted in Dulbeccos modified Eagles media supplemented with 2% FCS to a concentration of 120,000 cells/ml. The cells were plated into 96-well plates (50 μl per well) and the plates were placed in a tissue culture incubator ([…]; 5% CO2195% air) for a period of 24 h.
Subsequently, 50 μl of the desired drug solution (2 times the final concentration) was added to each well and the plates were returned to the tissue culture incubator (370° C.; 5% CO2/95% air) for 1 h. Following this incubation, 60 μl of diluted virus (4 times the final concentration) was added to 60 μl of 2× the final desired concentration of the compound and 100 μl of this compound/virus mix was added to each well (approximately 2 million RLU per well of virus). The plates were returned to the tissue culture incubator (370° C.; 5% CO2/95% air) and were incubated for a further 96 h.
Following this incubation the endpoint for the virally infected cultures was quantified following addition of Steady-Glo Luciferase assay system reagent (Promega, Madison, Wis.). Cell viability or non-infected cultures was measured using a CellTiter-Glo luminescent cell viability assay system (Promega, Madison, Wis.). All luminescent readouts are performed on a Topcount luminescence detector (Packard, Meridien, Conn.).

Structures are written as SMILES. A value given as a limit tells only on which side of the number the result lay.

As for `CC(C)N(Cc1nc2cccc(N3CCC(N(C)C)CC3)n2c1C(N)=O)[C@H]1CCCc2cccnc21` [Example 71, 5-[4-(dimethylamino)-1-piperidinyl]-2-({(1-methylethyl)[(8S)-5,6,7,8-tetrahydro-8-quinolinyl]amino}methyl)imidazo[1,2-a]pyridine-3-carboxamide], the IC50 was below 100 nM.

Take `CCCN(Cc1nc2cccc(N3CCN(C)CC3)n2c1Cl)[C@H]1CCCc2cccnc21` [Example 82, (8S)—N-{[3-Chloro-5-(4-methyl-1-piperazinyl)imidazo[1,2-a]pyridin-2-yl]methyl}-N-propyl-5,6,7,8-tetrahydro-8-quinolinamine]: the IC50 is below 100 nM.

For `CN1CCN(c2cccc3nc(CN(CC4CC4)[C@H]4CCCc5cccnc54)c(C#N)n23)CC1` [Example 33, 2-({(Cyclopropylmethyl)[(8S)-5,6,7,8-tetrahydro-8-quinolinyl]amino}methyl)-5-(4-methyl-1-piperazinyl)imidazo[1,2-a]pyridine-3-carbonitrile], the IC50 is below 100 nM.

As to `CCN(Cc1nc2cccc(N3CC[C@@H](N(C)C)C3)n2c1C#N)[C@H]1CCCc2cccnc21` [Example 42, 5-[(3R)-3-(Dimethylamino)-1-pyrrolidinyl]-2-({ethyl[(8S)-5,6,7,8-tetrahydro-8-quinolinyl]amino}methyl)imidazo[1,2-a]pyridine-3-carbonitrile], the IC50 is below 100 nM.

Take `CC(C)N(Cc1nc2cccc(N3CCC(N(C)C)CC3)n2c1C#N)[C@H]1CCCc2cccnc21` [Example 70, 5-[4-(dimethylamino)-1-piperidinyl]-2-({(1-methylethyl)[(8S)-5,6,7,8-tetrahydro-8-quinolinyl]amino}methyl)imidazo[1,2-a]pyridine-3-carbonitrile]: the IC50 was below 100 nM.

On to `CC(C)N(Cc1nc2cccc(N3CC[C@@H](N(C)C)C3)n2c1C#N)[C@H]1CCCc2cccnc21` [Example 50, 5-[(3R)-3-(Dimethylamino)-1-pyrrolidinyl]-2-({(1-methylethyl)[(8S)-5,6,7,8-tetrahydro-8-quinolinyl]amino}methyl)imidazo[1,2-a]pyridine-3-carbonitrile], for which the IC50 is below 100 nM.

Turning to `CC(=O)c1c(CN(C)[C@H]2CCCc3cccnc32)nc2cccc(N3CCN(C)CC3)n12` [Example 14, 1-[5-(4-Methyl-1-piperazinyl)-2-({methyl[(8S)-5,6,7,8-tetrahydro-8-quinolinyl]amino}methyl)imidazo[1,2-a]pyridin-3-yl]ethanone], the IC50 was below 100 nM.

Take `CN(C)C1CCN(c2cccc3nc(CN(C)[C@H]4CCCc5cccnc54)c(Cl)n23)CC1` [Example 75, (8S)—N-({3-Chloro-5-[4-(dimethylamino)-1-piperidinyl]imidazo[1,2-a]pyridin-2-yl}methyl)-N-methyl-5,6,7,8-tetrahydro-8-quinolinamine]: the IC50 is below 100 nM.

With `CN(C)[C@@H]1CCN(c2cccc3nc(CN(C)[C@H]4CCCc5cccnc54)c(C(N)=O)n23)C1` [Example 39, 5-[(3R)-3-(Dimethylamino)-1-pyrrolidinyl]-2-({methyl[(8S)-5,6,7,8-tetrahydro-8-quinolinyl]amino}methyl)imidazo[1,2-a]pyridine-3-carboxamide], the IC50 was below 100 nM.

Regarding `CN1CCN(c2cccc3nc(CN(C)[C@H]4CCCc5cccnc54)c(C#N)n23)CC1` [Example 17, 5-(4-Methyl-1-piperazinyl)-2-({methyl[(8S)-5,6,7,8-tetrahydro-8-quinolinyl]amino}methyl)imidazo[1,2-a]pyridine-3-carbonitrile], the IC50 was below 100 nM.

Take `CCN1CCN(c2cccc3nc(CN(C)[C@H]4CCCc5cccnc54)c(Cl)n23)CC1` [Example 73, (8S)—N-{[3-Chloro-5-(4-ethyl-1-piperazinyl)imidazo[1,2-a]pyridin-2-yl]methyl}-N-methyl-5,6,7,8-tetrahydro-8-quinolinamine]: the IC50 was below 100 nM.
